Measurements reported in patent US20260048052A1, “METHODS OF TREATING TENOSYNOVIAL GIANT CELL TUMORS” (Deciphera Pharmaceuticals, LLC, priority 2023, published 2026).

Test system: patients with TGCT not amenable to surgery
Assay: Phase 3 study of vimseltinib in patients with TGCT: safety (TEAEs, Part 1)
Type: in vivo, human
Description: This study is a two-part, randomized, double-blind, placebo-controlled study to assess the efficacy and safety of vimseltinib in patients with TGCT not amenable to surgery with no prior anti-CSF1/CSF1R therapy (prior therapy with imatinib or nilotinib allowed). In Part 1, patients (n=123) were randomized two-to-one to receive either 30 mg twice weekly of vimseltinib (n=83) or placebo (n=40) for 24 weeks. Vimseltinib or matching placebo was administered orally each week on day 1 and day 5 (±1 day) at approximately the same time of day on an empty stomach, with ≥24 hours between doses. An MRI of the affected joint was performed at screening, cycle 4 day 1 (week 13; ±7 days), and at the end of Part 1. Part 2 is an ongoing open-label study, in which patients from both the vimseltinib and placebo arms receive treatment with vimseltinib.
The primary endpoint of the study is the objective response rate (ORR) at Week 25 as measured by Response Evaluation Criteria in Solid Tumors (RECIST) version 1.1 by blinded independent radiologic review (IRR). Key secondary endpoints included the objective response rate at Week 25 by IRR per tumor volume score (TVS), active range of motion (ROM) at Week 25, PROMIS physical function (PROMIS-PF) score, worst stiffness numeric rating scale (NRS) score at Week 25, EQ-visual analogue scale (EQ-VAS) score at Week 25, and greater than or equal to 30% reduction in Brief Pain Inventory (BPI) in worst pain and less than 30% increase in narcotic use (BPI-30) at Week 25. Other secondary endpoints included duration of response (DOR) and safety.
Vimseltinib was well-tolerated and the safety profile in the study was consistent with previously disclosed data. […] Patients with treatment-emergent adverse events (TEAEs) leading to treatment discontinuation was 5% in the vimseltinib arm. The table below lists TEAEs greater than 15% in either arm during Part 1 of the study.

[1] = 30 mg twice weekly, n=83, Part 1

For `Cc1nc(-c2cnc(NC(C)C)n(C)c2=O)ccc1Oc1ccnc(-c2cnn(C)c2)c1` [Vimseltinib, 2-(isopropylamino)-3-methyl-5-(6-methyl-5-((2-(1-methyl-IH-pyrazol-4-yl)pyridin-4-yl)oxy)pyridin-2-yl)pyrimidin-4(3H)-one], the cholestatic hepatotoxicity (30 mg twice weekly) was “no evidence of cholestatic hepatotoxicity”, the “related SAE” value (30 mg twice weekly) was “one related SAE of subcutaneous abscess” and the “severe adverse events (SAE) per patient” value (30 mg twice weekly) was “no severe adverse event (SAE) occurred in more than one patient”. For the same molecule, the tolerability (30 mg twice weekly) was “well-tolerated”, the “TEAE AST increased, All Grades” value [1] was 19 (23%) n (%) and the “TEAE AST increased, Grade 3-4, number of patients” value [1] was 0 n. For the same molecule, the “TEAE Arthralgia, All Grades” value [1] was 16 (19%) n (%), the “TEAE Arthralgia, Grade 3-4, number of patients” value [1] was 0 n and the “TEAE Asthenia, All Grades” value [1] was 22 (27%) n (%). The “TEAE Asthenia, Grade 3-4, number of patients” value [1] was 1 n, the “TEAE Asthenia, Grade 3-4, percent of patients” value [1] was “(1%)” and the “TEAE CPK increased, All Grades” value [1] was 20 (24%) n (%). For the same molecule, the “TEAE CPK increased, Grade 3-4, number of patients” value [1] was 8 n, the “TEAE CPK increased, Grade 3-4, percent of patients” value [1] was 10% and the “TEAE Diarrhea, All Grades” value [1] was 10 (12%) n (%). The “TEAE Diarrhea, Grade 3-4, number of patients” value [1] was 0 n, the “TEAE Edema peripheral, All Grades” value [1] was 15 (18%) n (%) and the “TEAE Edema peripheral, Grade 3-4, number of patients” value [1] was 0 n. The “TEAE Face edema, All Grades” value [1] was 26 (31%) n (%), the “TEAE Face edema, Grade 3-4, number of patients” value [1] was 1 n and the “TEAE Face edema, Grade 3-4, percent of patients” value [1] was “(1%)”. The “TEAE Fatigue, All Grades” value [1] was 27 (33%) n (%), the “TEAE Fatigue, Grade 3-4, number of patients” value [1] was 0 n and the “TEAE Headache, All Grades” value [1] was 23 (28%) n (%). The “TEAE Headache, Grade 3-4, number of patients” value [1] was 1 n, the “TEAE Headache, Grade 3-4, percent of patients” value [1] was “(1%)” and the “TEAE Hypertension, All Grades” value [1] was 14 (17%) n (%). The “TEAE Hypertension, Grade 3-4, number of patients” value [1] was 4 n, the “TEAE Hypertension, Grade 3-4, percent of patients” value [1] was “(5%)” and the “TEAE Nausea, All Grades” value [1] was 21 (25%) n (%). The “TEAE Nausea, Grade 3-4, number of patients” value [1] was 0 n, the “TEAE Periorbital edema, All Grades” value [1] was 37 (45%) n (%) and the “TEAE Periorbital edema, Grade 3-4, number of patients” value [1] was 3 n. For the same molecule, the “TEAE Periorbital edema, Grade 3-4, percent of patients” value [1] was “(4%)”, the “TEAE Pruritus, All Grades” value [1] was 24 (29%) n (%) and the “TEAE Pruritus, Grade 3-4, number of patients” value [1] was 2 n. For the same molecule, the “TEAE Pruritus, Grade 3-4, percent of patients” value [1] was “(2%)”, the “TEAE Rash maculo-papular, All Grades” value [1] was 16 (19%) n (%) and the “TEAE Rash maculo-papular, Grade 3-4, number of patients” value [1] was 1 n. The “TEAE Rash maculo-papular, Grade 3-4, percent of patients” value [1] was “(1%)”, the “TEAE Rash, All Grades” value [1] was 16 (19%) n (%) and the “TEAE Rash, Grade 3-4, number of patients” value [1] was 0 n. For the same molecule, the “TEAE CPK increased, Grade 3-4, percent of patients” value (30 mg twice weekly, n=83, Part 1, listed as Vimseltinb) was “(10%)” and the “Patients with TEAEs leading to treatment discontinuation” value (vimseltinib arm) was 5%.
